Data set [1] is described as follows: Accelerated stability study in an LDPE bag at 40° C./75% RH for five weeks. It counts as physicochemical.
Data set [2] concerns Infantile Fibrosarcoma with NTRK3-ETV6 Fusion. Nature of the data set: Phase 1 pediatric dose-escalation study (NCT02637687), oral liquid formulation of Compound I-HS, case of one patient.
The nature of data set [3]: Dynamic vapor sorption (DVS) isotherm, hygroscopicity. It counts as physicochemical. The procedure: For the DVS measurement a sample of crystalline form (I-HS) was cycled through changing humidity conditions to determine its hygroscopicity. The sample was analyzed using a Surface Measurement System DVS-1 Dynamic Vapor Sorption System. […] Data was collected in 1 minute intervals. Nitrogen was used as the carrier gas. […] After completion of the sorption cycle, the sample was dried using the same procedure, but all the way down to 0% RH and finally taken back to the starting point of 20% RH. The weight change during the sorption/desorption cycles were plotted, allowing for the hygroscopic nature of the sample to be determined.
A small increase in mass of about 1.7% was observed between 0% and 90% RH during the sorption cycle.

Structures are written as SMILES. Where a name gives a salt, the structure may show the parent alone.

As to `O=C(Nc1cnn2ccc(N3CCC[C@@H]3c3cc(F)ccc3F)nc12)N1CC[C@H](O)C1.O=S(=O)(O)O` [AM(HS), (S)—N-(5-((R)-2-(2,5-difluorophenyl)-pyrrolidin-1-yl)-pyrazolo[1,5-a]pyrimidin-3-yl)-3-hydroxypyrrolidine-1-carboxamide hydrogen sulfate], the “change in chemical impurity levels” value in data set [1] is listed as “neither the AM(HS) or crystalline form (I-HS) exhibited a significant changes in chemical impurity levels”.
With `O=C(Nc1cnn2ccc(N3CCC[C@@H]3c3cc(F)ccc3F)nc12)N1CC[C@H](O)C1` [Compound I-HS, (S)—N-(5-((R)-2-(2,5-difluorophenyl)-pyrrolidin-1-yl)-pyrazolo[1,5-a]pyrimidin-3-yl)-3-hydroxypyrrolidine-1-carboxamide hydrogen sulfate], the “change in chemical impurity levels” value in data set [1] is “neither the AM(HS) or crystalline form (I-HS) exhibited a significant changes in chemical impurity levels”. For the same compound, the “reduction in the size and enhancement of the mass from baseline” value in data set [2] (MR of the brain and neck, end of cycle 1 (day 28), BID dosing, patient) was “more than 90%”. Further, the “response on repeat scans” value in data set [2] (end of Cycle 2, MR of the brain and neck) was “partial response”. Further, the “adverse events related to the compound” value in data set [2] (first two cycles (28-day cycles)) was “no adverse events”. Also, the “hygroscopicity by DVS” value in data set [3] (20-90% RH ramp, 10% increments) is given as “non-hygroscopic”. The “change in crystalline form during DVS (XRPD post vs pre DVS)” value in data set [3] (XRPD after DVS analysis) was “no change”.

The values above are taken from patent US11484535B2, “Liquid formulations of (S)-N-(5-((R)-2-(2,5-difluorophenyl)-pyrrolidin-1-yl)-pyrazolo[1,5-a] pyrimidin-3-yl)-3-hydroxypyrrolidine-1-carboxamide” (Loxo Oncology, Inc., priority 2016, dated 2022).
